Test in all cases: SelectScreen kinase assay
One experiment has as its target T1, AURKA (Aurora A) (Homo sapiens, UniProt O14965).
T1 sequence (O14965 1-403): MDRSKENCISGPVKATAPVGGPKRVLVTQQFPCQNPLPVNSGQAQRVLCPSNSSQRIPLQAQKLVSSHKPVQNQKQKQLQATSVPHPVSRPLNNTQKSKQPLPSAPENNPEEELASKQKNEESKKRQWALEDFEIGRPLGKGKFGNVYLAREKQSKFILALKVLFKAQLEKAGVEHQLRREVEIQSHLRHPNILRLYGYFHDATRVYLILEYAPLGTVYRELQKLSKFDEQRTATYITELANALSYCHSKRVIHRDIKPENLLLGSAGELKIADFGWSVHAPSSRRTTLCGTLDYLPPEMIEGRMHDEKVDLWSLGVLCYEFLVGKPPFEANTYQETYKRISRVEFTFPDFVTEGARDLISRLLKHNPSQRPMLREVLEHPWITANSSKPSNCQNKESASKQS

The next experiment has as its target T2, MAP3K5 (ASK1) (Homo sapiens, UniProt Q99683).
T2 sequence (Q99683 1-1374): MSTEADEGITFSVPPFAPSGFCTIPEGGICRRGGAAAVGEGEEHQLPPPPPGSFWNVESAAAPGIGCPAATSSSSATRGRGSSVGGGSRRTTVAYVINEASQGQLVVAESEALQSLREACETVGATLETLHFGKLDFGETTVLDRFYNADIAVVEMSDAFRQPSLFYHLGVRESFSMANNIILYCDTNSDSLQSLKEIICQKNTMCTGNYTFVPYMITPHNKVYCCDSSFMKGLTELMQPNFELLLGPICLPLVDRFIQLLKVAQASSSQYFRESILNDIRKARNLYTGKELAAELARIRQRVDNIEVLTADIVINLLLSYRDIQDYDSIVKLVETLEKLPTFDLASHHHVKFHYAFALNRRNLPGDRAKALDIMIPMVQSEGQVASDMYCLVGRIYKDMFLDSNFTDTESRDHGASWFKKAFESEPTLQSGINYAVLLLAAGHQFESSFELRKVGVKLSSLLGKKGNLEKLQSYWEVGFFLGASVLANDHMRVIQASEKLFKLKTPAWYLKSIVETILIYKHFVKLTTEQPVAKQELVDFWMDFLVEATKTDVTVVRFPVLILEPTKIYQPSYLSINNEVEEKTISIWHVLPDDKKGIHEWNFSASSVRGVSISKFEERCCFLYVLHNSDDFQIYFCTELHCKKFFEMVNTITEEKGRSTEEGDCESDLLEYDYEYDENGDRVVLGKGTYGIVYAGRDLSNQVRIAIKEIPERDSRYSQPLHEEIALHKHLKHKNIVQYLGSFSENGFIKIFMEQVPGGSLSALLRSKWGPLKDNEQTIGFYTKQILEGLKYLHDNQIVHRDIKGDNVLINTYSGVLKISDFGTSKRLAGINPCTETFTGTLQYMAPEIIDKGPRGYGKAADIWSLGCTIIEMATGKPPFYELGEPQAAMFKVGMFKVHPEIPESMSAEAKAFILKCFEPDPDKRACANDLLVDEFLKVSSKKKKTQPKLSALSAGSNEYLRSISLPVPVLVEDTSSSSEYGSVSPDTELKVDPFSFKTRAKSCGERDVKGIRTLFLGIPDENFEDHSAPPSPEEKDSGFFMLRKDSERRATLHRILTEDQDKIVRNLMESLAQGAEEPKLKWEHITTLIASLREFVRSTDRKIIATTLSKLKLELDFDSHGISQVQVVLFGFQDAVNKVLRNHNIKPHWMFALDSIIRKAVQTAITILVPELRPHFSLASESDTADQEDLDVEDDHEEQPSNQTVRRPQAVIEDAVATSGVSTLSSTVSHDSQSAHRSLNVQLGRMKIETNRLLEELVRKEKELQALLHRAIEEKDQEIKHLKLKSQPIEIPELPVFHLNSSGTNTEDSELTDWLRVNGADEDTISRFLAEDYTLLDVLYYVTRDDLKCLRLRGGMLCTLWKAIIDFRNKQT

The next experiment has as its target STK23 (MSSK1) (Homo sapiens, UniProt Q9UPE1). As to conditions: for Inhibition at 1 µM (%): ZLYTE, ATP Km app.
Where [1] appears, read: 1 h, 1 μM WEL028, 1 h preincubation.

Where two headings read alike, the source gives them in different places.

Chain of STK23 (MSSK1) (Q9UPE1 whole entry): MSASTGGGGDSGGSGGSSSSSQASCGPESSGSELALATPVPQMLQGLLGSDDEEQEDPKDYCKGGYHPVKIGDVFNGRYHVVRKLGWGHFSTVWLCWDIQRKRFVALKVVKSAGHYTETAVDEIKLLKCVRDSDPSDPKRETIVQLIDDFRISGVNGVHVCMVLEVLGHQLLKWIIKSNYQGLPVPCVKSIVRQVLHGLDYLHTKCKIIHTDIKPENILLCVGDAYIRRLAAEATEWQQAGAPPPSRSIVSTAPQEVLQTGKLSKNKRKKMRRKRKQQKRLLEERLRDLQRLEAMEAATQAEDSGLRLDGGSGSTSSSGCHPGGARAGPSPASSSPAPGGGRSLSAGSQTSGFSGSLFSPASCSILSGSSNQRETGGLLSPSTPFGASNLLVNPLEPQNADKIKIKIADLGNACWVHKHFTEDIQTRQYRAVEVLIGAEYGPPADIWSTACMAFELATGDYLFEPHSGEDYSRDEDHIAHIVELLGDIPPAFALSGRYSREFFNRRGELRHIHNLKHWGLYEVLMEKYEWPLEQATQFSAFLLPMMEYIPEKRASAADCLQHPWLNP
Procedure for AURKA (Aurora A): (§1) Selectivity profiling assays were performed by the Invitrogen SelectScreen™ Services. […] The concentration of ATP was selected to be equal to the KM, unless indicated otherwise.
Procedure for MAP3K5 (ASK1): as §1
Procedure for STK23 (MSSK1): as §1

`C#CCOc1ccc(Nc2ncc(Cl)c(Nc3ccccc3NC(=O)C=C)n2)c(OC)c1` [Compound 6] gave an IC50 on AURKA (Aurora A) of 0.631 µM. Further, the inhibition at 1 µM against AURKA (Aurora A) (setting [1]) was 74%; at AURKA (Aurora A) (read-out: Inhibition at 1 µM (%), AURKA (Aurora A), 1 µM, ZLYTE, ATP Km app), 78%; against MAP3K5 (ASK1) (setting [1]) it was 6%; at MAP3K5 (ASK1) (read-out: Inhibition at 1 µM (%), MAP3K5 (ASK1), 1 µM, LanthaScreen Binding), 5%; against STK23 (MSSK1) (setting [1]) it was -1%. In addition, the inhibition at 10 µM on AURKA (Aurora A) (1 h, log[inhibitor] (M) -5.00, ZLYTE, ATP Km app) was found to be 100%. Also, the inhibition at 3.31 µM on AURKA (Aurora A) (1 h, log[inhibitor] (M) -5.48, ZLYTE, ATP Km app) was determined as 90%. The inhibition at 1.12 µM against AURKA (Aurora A) (1 h, log[inhibitor] (M) -5.95, ZLYTE, ATP Km app) worked out at 69%. Besides, the inhibition at 0.372 µM at AURKA (Aurora A) (1 h, log[inhibitor] (M) -6.43, ZLYTE, ATP Km app) turned out to be 46%. Moreover, the inhibition at 0.123 µM at AURKA (Aurora A) (1 h, log[inhibitor] (M) -6.91, ZLYTE, ATP Km app) amounted to 28%. Moreover, the inhibition at 0.04074 µM at AURKA (Aurora A) (1 h, log[inhibitor] (M) -7.39, ZLYTE, ATP Km app) amounted to 16%. For the same compound, the inhibition at 0.0138 µM at AURKA (Aurora A) (1 h, log[inhibitor] (M) -7.86, ZLYTE, ATP Km app) is 8%. On AURKA (Aurora A) (1 h, log[inhibitor] (M) -[…], ZLYTE, ATP Km app), the inhibition at 0.004571 µM was found to be 3%. Moreover, the “Inhibition at 1 µM (%)” value at AURKA (Aurora A) (AURKA (Aurora A), 1 µM, ZLYTE, ATP Km app, listed as WEL028, 1 µM) was 70%; on MAP3K5 (ASK1) (MAP3K5 (ASK1), 1 µM, LanthaScreen Binding, listed as WEL028, 1 µM), 8%; at STK23 (MSSK1), 2%; on STK23 (MSSK1) (listed as WEL028, 1 µM), -4%. At AURKA (Aurora A) (IC50 on that kinase divided by IC50 on FES^S700C), the Apparent fold selectivity is on record as 155 fold.

What is called IC50 is the concentration needed to halve the response being measured. Read a high IC50 as a need for much substance. For orientation: inhibition means the change of the read-out against control, counted positive when it falls. One may read the Inhibition as the change of the read-out against control, counted positive when it falls.

(Values after paper PMC7316778 (Nature Communications, 2020).)
